Tests used:
[1] = tested on: rat H9c2 cardiac myocytes; experiment: MTT cell activity of H9c2 cardiac myocytes after hypoxia/reoxygenation injury; type: cell-based; details: total 30 μM, 12 h preincubation, hypoxia 6 h, reoxygenation 5 h
Description: Rat cardiac myocytes H9c2 in logarithmic growth phase are taken. After digestion, the cells are resuspended with DMEM medium (containing 10% FBS), then inoculated into 96-well plate and normally cultured in incubator of 37° C. and 5% CO2. After entering logarithmic growth phase, the cells are divided into following groups for experiment: (1) normal culture group (Control group): during the experiment, cells are normally cultured in incubator of 37° C. and 5% CO2; (2) […] Model group (Model group): normal culture fluid for the experimental cells in logarithmic growth phase is replaced with glucose-free Earle's solution which has been previously saturated with mixture of 95% N2+5% CO2 for 1 hour. Then the cells are cultured in hypoxic condition for 6 h at 37° C. in constant-temperature incubator introduced with the mixture of 95% N2+5% CO2. Then the hypoxia treated cells are subjected to reoxygenation in normal condition for 5 h with the high glucose medium DMEM (containing 10% FBS) which has been previously saturated with mixture of 95% air+5% CO2. (3) pre-treated compatible group of luteilon, kaempferol and luteolin-7-O-glucoside: H9c2 cells are preincubated for 12 h with luteilon, kaempferol and luteolin-7-O-glucoside combined in different ratios. Then, the normal culture solution is replaced with glucose-free Earle's solution which has been previously saturated with mixture of 95% N2+5% CO2 for 1 hour. After anoxic treatment for 6 h with N2 anoxic tank, the cells are subjected to reoxygenation for 5 h in normal culture condition with normal culture solution; meanwhile the cells are incubated with the administration of each compatible drug. After treatment, 20 μg/ml MTT is added, and each experimental group is cultured for 4 h, then MTT is solved in 150 μl DMSO. OD of each well is read by ELISA meter at wavelength of 490 nm, and activity of cells is determined.

[2] = tested on: rat primary cardiac myocytes; experiment: MTT cell activity of rat primary cardiac myocytes injured by hypoxia/reoxygenation; type: cell-based; details: 30 μM, 24 h pre-treatment, hypoxia 6 h, reoxygenation 5 h
Description: Wistar ventricular myocytes of neonatal rat aged 2 d are isolated under asepsis condition, then the myocytes are digested with mixture of digestive enzymes (0.06% trypsin and 0.1% type II collagenase mixed in equal amount) for multiple times in a short time. Cardiac myocytes are purified using differential adhesion method. […] The cells are cultured for 24 hours, then the supernatant is discarded, and the cells are washed with PBS three times. […] After pre-treatment for 24 h, all of the hypoxia/reoxygenation injury groups are placed in glucose-free Earle's solution which has been previously saturated with mixture of 95% N2+5% CO2 for 1 hour. The cells are cultured in hypoxic condition for 6 h at 37° C. in constant-temperature incubator introduced with the mixture of 95% N2+5% CO2. Then the hypoxia treated cells are subjected to reoxygenation in normal condition for 5 h with the DMEM high glucose medium (containing 10% FBS) which has been previously saturated with mixture of 95% air+5% CO2. At the same time, the cells are incubated with the administration of compatible compositions. After treating the experimental groups of cells, 20 μg/ml MTT is added, and each experimental group is cultured for 4 h, then MTT is solved in 150 μl DMSO. OD of each well is read by ELISA meter at wavelength of 490 nm, and activity of cells is determined.

[3] = tested on: rat primary cardiac myocytes; experiment: LDH leak of rat primary cardiac myocytes injured by nitrogen hypoxia/reoxygenation; type: cell-based; details: 30 μM; culture medium supernatant; hypoxia 6 h, reoxygenation 5 h
Description: Experiment Method: Wistar ventricular myocytes of neonatal rat aged 2 d are isolated under asepsis condition, then the myocytes are digested with mixture of digestive enzymes (0.06% trypsin and 0.1% type II collagenase mixed in equal amount) for multiple times in a short time. Cardiac myocytes are purified using differential adhesion method. […] The cells are cultured for 24 hours, then the supernatant is discarded, and the cells are washed with PBS three times. All of the cells are classified into contrast group, hypoxia/reoxygenation injury group, hypoxia/reoxygenation model+compatible composition group. After pre-treatment for 24 h, all of the hypoxia/reoxygenation injury groups are placed in glucose-free Earle's solution which has been previously saturated with mixture of 95% N2+5% CO2 for 1 hour. The cells are cultured in hypoxic condition for 6 h at 37° C. in constant-temperature incubator introduced with mixture of 95% N2+[…]. Then the hypoxia treated cells are subjected to reoxygenation in normal condition for 5 h with the high glucose medium DMEM (containing 10% FBS) which has been previously saturated with mixture of 95% air+[…]. At the same time, the cells are incubated with compatible compositions. After treating the experimental groups of cells, the supernatant is collected; the content of LDH leak in supernatant of culture medium is measured according to the steps of LDH kit.

[4] = tested on: rat primary cardiac myocytes; experiment: pH of culture supernatant of rat primary cardiac myocytes injured by nitrogen hypoxia/reoxygenation; type: cell-based; details: 30 μM; culture medium supernatant; hypoxia 6 h, reoxygenation 5 h
Description: Experiment method: Wistar ventricular myocytes of neonatal rat aged 2 d are isolated under asepsis condition, then the myocytes are digested with mixture of digestive enzymes (0.06% trypsin and 0.1% type II collagenase mixed in equal amount) for multiple times in a short time. Cardiac myocytes are purified using differential adhesion method. […] The cells are cultured for 24 hours, then the supernatant is discarded, and the cells are washed with PBS three times. All of the cells are classified into contrast group, hypoxia/reoxygenation injury group, hypoxia/reoxygenation model+compatible composition group. After pre-treatment for 24 h, all of the hypoxia/reoxygenation injury groups are placed in glucose-free Earle's solution which has been previously saturated with mixture of 95% N2+5% CO2 for 1 hour. The cells are cultured in hypoxic condition for 6 h at 37° C. in constant-temperature incubator introduced with the mixture of 95% N2+5% CO^2. Then the hypoxia treated cells are subjected to reoxygenation in normal condition for 5 h with the high glucose medium DMEM (containing 10% FBS) which has been previously saturated with mixture of 95% air+5% CO2. At the same time, the cells are incubated with compatible compositions. After treating the experimental groups of cells, the supernatant is collected; the pH of supernatant of culture medium is measured directly with pH meter.

[5] = tested on: rat primary cardiac myocytes; experiment: ATP, ADP, AMP content (HPLC) of rat primary cardiac myocytes injured by nitrogen hypoxia/reoxygenation; type: cell-based; details: 30 μM, cell lysate supernatant
Description: Experiment method: Wistar ventricular myocytes of neonatal rat aged 2 d are isolated under asepsis condition, then the myocytes are digested with mixture of digestive enzymes (0.06% trypsin and 0.1% type II collagenase mixed in equal amount) for multiple times in a short time. Cardiac myocytes are purified using differential adhesion method. […] The cells are cultured for 24 hours, then the supernatant is discarded, and the cells are washed with PBS three times. All of the cells are classified into contrast group, hypoxia/reoxygenation injury group, hypoxia/reoxygenation model+compatible composition group. After pre-treatment for 24 h, all of the hypoxia/reoxygenation injury groups are placed in glucose-free Earle's solution which has been previously saturated with mixture of 95% N2+5% CO2 for 1 hour. The cells are cultured in hypoxic condition for 6 h at 37° C. in constant-temperature incubator introduced with the mixture of 95% N2+5% CO2. Then the hypoxia treated cells are subjected to reoxygenation in normal condition for 5 h with the high glucose medium DMEM (containing 10% FBS) which has been previously saturated with mixture of 95% air+5% CO2. At the same time, the cells are incubated with compatible compositions. After treating the experimental groups of cells, the culture solution is discarded. The cells are washed once with pre-cooled PBS. 500 μl pre-cooled 50% perchlorate solution is added in each well. Pyrolysis of cells take place on ice for 5 min. The cells are scrapped, 600 μl of 2.5 mol/L Na2CO3 solution is added, and pH is adjusted to 6.5. Pyrolysis mixture is collected in centrifuge tube and centrifuged in 4° C. Content of supernatant is determined by HPLC. […] The content is determined with HPLC method. The equipment is LC-2010C quaternionic pump high performance liquid chromatogram, analytical column is Diamonsil C18 column (250 mm×4.6 mm, 5 μm), detection wavelength: 260 nm, mobile phase is 0.05M phosphate buffer (pH 6.5), detector is UV-vis detector. Flow-rate of column is 0.8 ml/min, sample size is 20 μl, and analytical time is 12 min, the data is processed using LCsolution chromatography workstation (Japan, […]).

[6] = tested on: myocardial ischemia-reperfusion injury (MIRI); details: previous studies; cited from earlier work
SHP-2 = target: T1, SHP-2 (Homo sapiens, UniProt Q06124); details: previous studies; cited from earlier work
T1 sequence (Q06124 1-593): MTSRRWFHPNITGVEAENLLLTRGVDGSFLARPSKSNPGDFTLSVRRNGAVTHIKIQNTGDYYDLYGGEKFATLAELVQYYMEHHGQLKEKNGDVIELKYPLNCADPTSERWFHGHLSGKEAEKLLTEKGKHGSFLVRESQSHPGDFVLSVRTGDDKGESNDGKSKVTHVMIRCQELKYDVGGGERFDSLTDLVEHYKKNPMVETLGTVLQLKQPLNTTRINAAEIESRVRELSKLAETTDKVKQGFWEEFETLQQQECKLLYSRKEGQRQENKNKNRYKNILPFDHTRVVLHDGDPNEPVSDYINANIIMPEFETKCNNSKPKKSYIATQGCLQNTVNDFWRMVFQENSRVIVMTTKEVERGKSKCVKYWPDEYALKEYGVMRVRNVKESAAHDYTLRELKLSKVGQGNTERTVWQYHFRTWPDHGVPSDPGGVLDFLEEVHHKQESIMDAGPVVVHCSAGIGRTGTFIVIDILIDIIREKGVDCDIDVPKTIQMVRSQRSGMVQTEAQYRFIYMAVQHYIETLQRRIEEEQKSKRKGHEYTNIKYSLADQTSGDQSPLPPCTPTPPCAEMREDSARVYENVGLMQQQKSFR

PTEN = PTEN (Homo sapiens, UniProt P60484); details: previous studies; cited from earlier work
Sequence of PTEN (P60484 whole entry, species assumed): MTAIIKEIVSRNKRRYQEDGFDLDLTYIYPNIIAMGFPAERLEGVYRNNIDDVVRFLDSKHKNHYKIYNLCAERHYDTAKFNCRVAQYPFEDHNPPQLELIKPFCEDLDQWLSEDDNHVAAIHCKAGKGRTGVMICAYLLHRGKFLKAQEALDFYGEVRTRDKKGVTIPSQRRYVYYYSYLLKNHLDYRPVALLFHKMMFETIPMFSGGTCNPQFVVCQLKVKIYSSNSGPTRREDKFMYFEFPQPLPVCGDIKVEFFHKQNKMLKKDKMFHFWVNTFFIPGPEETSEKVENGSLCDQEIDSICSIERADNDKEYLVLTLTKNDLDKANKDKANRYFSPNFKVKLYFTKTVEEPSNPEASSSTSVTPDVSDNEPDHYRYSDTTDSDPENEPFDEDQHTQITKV

SMILES: O=c1cc(-c2ccc(O)c(O)c2)oc2cc(O[C@@H]3O[C@H](CO)[C@@H](O)[C@H](O)[C@H]3O)cc(O)c12 [Luteolin-7-0-glucoside, luteolin-7-O-glucoside]
- protection rate of cell activity (%) [1]: 78.57 ± 4.54%
- protection rate of cell activity (%) [2]: 71.17%
- Leak rate (%) of LDH [3]: 115.18%
- pH of supernatant [4]: 7.08
- ADP [5]: 17.12 µg/mL
- AMP [5]: 8.97 µg/mL
- ATP [5]: 69.45 µg/mL
- level of cytoplasmic Ca2+ [6]: reduce
- oxygen free radical damage [6]: prevent

SMILES: O=c1cc(-c2ccc(O)c(O)c2)oc2cc(O)cc(O)c12 [Luteilon, luteolin]
- protection rate of cell activity (%) [1]: 81.93 ± 7.18%
- protection rate of cell activity (%) [2]: 68.08%
- Leak rate (%) of LDH [3]: 122.37%
- pH of supernatant [4]: 7.11
- ADP [5]: 15.38 µg/mL
- AMP [5]: 7.59 µg/mL
- ATP [5]: 102.88 µg/mL
- function of myocardial contraction [6]: improve
- mitochondrial membrane potential [6]: increase

SMILES: O=c1c(O)c(-c2ccc(O)cc2)oc2cc(O)cc(O)c12 [Kaempferol, kaempferol]
- protection rate of cell activity (%) [1]: 76.97 ± 6.67%
- protection rate of cell activity (%) [2]: 69.22%
- Leak rate (%) of LDH [3]: 111.25%
- pH of supernatant [4]: 7.10
- ADP [5]: 17.15 µg/mL
- AMP [5]: 7.15 µg/mL
- ATP [5]: 84.72 µg/mL
- heart rate [6]: maintain
- mitochondrial Ca2+ [6]: reduce
- activity of SHP-2 (SHP-2): inhibit
- activity of PTEN (PTEN): inhibit

— patent US10369165B2, “Composition containing active components of Dracocephalum moldavica L. against myocardial ischemia-reperfusion injury” (Nanjing Ruiying Runze Biopharmaceutical Technology Co., Inc., priority 2014, dated 2019)
